The values below come from paper PMC7763917, “A Facile Semisynthesis and Evaluation of Garcinoic Acid and Its Analogs for the Inhibition of Human DNA Polymerase β” (Molecules, 2020).

A word on the IC50: it is the concentration needed to halve the response being measured.

For the first assay, the target named is T1, human DNA polymerase β (hpol β) (Homo sapiens, UniProt P06746).
Test: not given
Further details: method as in PMID 16146411. To be noted: garcinoic acid analog with the dihydropyran ring opened; not in Table 2, no reference printed at the sentence; cited from earlier work.
As for `C/C(=C\CC/C(C)=C/CC[C@@](C)(O)CCc1cc(O)cc(C)c1O)CC/C=C(\C)C(=O)O` [chrysochlamic acid], the “hpol β inhibition activity (in words)” value was “lack of hpol β inhibition activity”.

A further assay has as its target T1, human DNA polymerase β (hpol β). Briefly: fluorescence-based polymerase inhibition assay. The following applies: 1 nM hpol β, 50 nM DNA, 100 μM dTTP, 25 °C; compounds tested from 1 μM to 120 μM; mean of triplicate; read-out: IC50 in inhibiting hpol β. Type of assay: biochemical. How it is done: A fluorescence-based assay, as described previously, was used to determine the IC50 values for garcinoic acid and its homologs for human DNA polymerase β. DNA substrates were prepared as we reported previously. Briefly, a reporter strand conjugated with 5-carboxytetramethylrhodamine (TAMRA) and an unlabeled primer were annealed to a Black Hole Quencher (BHQ)-labelled template strand in a solution containing 10 mM Tris (pH 8.0) and 50 mM NaCl. The oligonucleotides were annealed in a 1:1.5:1.5 ratio for reporter, primer and template strand, respectively. The oligonucleotides were mixed and incubated for 3 min at 95 °C before cooling to room temperature.
The polymerase reaction was performed with 1 nM hpol β, 50 nM DNA, 100 μM dTTP and 2 mM MgCl2 in 50 mM Tris (pH 8.0) buffer containing 40 mM NaCl, 2 mM DTT and 0.01% (w/v) Tween 20. The reaction mix containing enzyme and dTTP were incubated for 5 min with the compound or DMSO in a 96-well plate before adding DNA to initiate the reaction. Polymerase reactions were performed at room temperature (25 °C). The plate was read continuously for one hour with a Synergy H4 plate reader (BioTek, λex = 525 nm, λem = 598 nm) (Winooski, VT, USA) after initiation of the reaction. The percent inhibition was calculated by dividing the rate of product formation at each compound concentration by the rate of product formation in DMSO control. The data was fit to a four-parameter logistic model with variable slope in Prism (San Diego, CA, USA) to calculate the IC50 values. The reactions were performed in triplicate and the mean IC50 value is reported with 95% confidence intervals.
As to `C/C(=C\CC/C(C)=C/CC[C@]1(C)CCc2cc(O)cc(C)c2O1)CC/C=C(\C)C(=O)O` [Compound 1, 13-[(R)-6-Hydroxy-2,8-dimethylchroman-2-yl]-2,6,10-trimethyltrideca-2E,6E,10E-trienoic acid], the IC50 amounted to 11 µM.
On the same count and under the same terms, the same measure for `C/C(=C\CC[C@]1(C)CCc2cc(O)cc(C)c2O1)C(=O)O` [Compound 9a, 5-[(R)-6-Hydroxy-2,8-dimethylchroman-2-yl]-2-methylpent-2E-enoic acid]: greater than 120 µM; for `Cc1cc(O)cc2c1O[C@](C)(CC/C=C/C(=O)O)CC2` [Compound 9b, 5-[(R)-6-Hydroxy-2,8-dimethylchroman-2-yl]pent-2E-enoic acid]: greater than 120 µM.
On the same count and under the same terms, the same measure for `C/C(=C\CC[C@]1(C)CCc2cc(O)cc(C)c2O1)CC/C=C(\C)C(=O)O` [Compound 10a, 9-[(R)-6-Hydroxy-2,8-dimethylchroman-2-yl]-2,6-dimethylnona-2E,6E-dienoic acid]: 52 µM; for `C/C(=C\CC[C@]1(C)CCc2cc(O)cc(C)c2O1)CC/C=C/C(=O)O` [Compound 10b, 9-[(R)-6-Hydroxy-2,8-dimethylchroman-2-yl]-6-methylnona-2E,6E-dienoic acid]: 49 µM; for `C/C(=C\CC/C(C)=C/CC[C@]1(C)CCc2cc(O)cc(C)c2O1)CC/C=C/C(=O)O` [Compound 11, 13-[(R)-6-Hydroxy-2,8-dimethylchroman-2-yl]-6,10-dimethyltrideca-2E,6E,10E-trienoic acid]: 23 µM.
Still for that read-out and setting: the same measure for `COC(=O)/C(C)=C/CC[C@]1(C)CCc2cc(O)cc(C)c2O1` [Compound 12a, Methyl 5-[(R)-6-hydroxy-2,8-dimethylchroman-2-yl]-2-methylpent-2E-enoate]: greater than 120 µM; for `COC(=O)/C=C/CC[C@]1(C)CCc2cc(O)cc(C)c2O1` [Compound 12b, Methyl 5-[(R)-6-hydroxy-2,8-dimethylchroman-2-yl]pent-2E-enoate]: greater than 120 µM; for `COC(=O)/C(C)=C/CC/C(C)=C/CC[C@]1(C)CCc2cc(O)cc(C)c2O1` [Compound 13a, Methyl 9-[(R)-6-hydroxy-2,8-dimethylchroman-2-yl]-2,6-dimethylnona-2E,6E-dienoate]: greater than 120 µM.
As to `COC(=O)/C=C/CC/C(C)=C/CC[C@]1(C)CCc2cc(O)cc(C)c2O1` [Compound 13b, Methyl 9-[(R)-6-hydroxy-2,8-dimethylchroman-2-yl]-6-methylnona-2E,6E-dienoate], the IC50 is greater than 120 µM.
For the compound `COC(=O)/C(C)=C/CC/C(C)=C/CC/C(C)=C/CC[C@]1(C)CCc2cc(O)cc(C)c2O1` [Compound 14a, Methyl 13-[(R)-6-hydroxy-2,8-dimethylchroman-2-yl]-2,6,10-trimethyltrideca-2E,6E,10E-trienoate], the half-maximal inhibitory concentration (IC50) was greater than 120 µM.
Still for that read-out and setting: the figure for `COC(=O)/C=C/CC/C(C)=C/CC/C(C)=C/CC[C@]1(C)CCc2cc(O)cc(C)c2O1` [Compound 14b, Methyl 13-[(R)-6-hydroxy-2,8-dimethylchroman-2-yl]-6,10-dimethyltrideca-2E,6E,10E-trienoate] is greater than 120 µM.
The same measure, in the same setting: the same measure for `COC(=O)/C(C)=C/CC/C(C)=C/CC/C(C)=C/CC[C@]1(C)CCc2cc(OC)cc(C)c2O1` [Compound 15, Methyl 13-[(R)-6-methoxy-2,8-dimethylchroman-2-yl]-2,6,10-trimethyltrideca-2E,6E,10E-trienoate]: greater than 120 µM; for `COc1cc(C)c2c(c1)CC[C@@](C)(CC/C=C(\C)CC/C=C(\C)CC/C=C(\C)C(=O)O)O2` [Compound 16, 13-[(R)-6-methoxy-2,8-dimethylchroman-2-yl]-2,6,10-trimethyltrideca-2E,6E,10E-trienoic Acid]: 31 µM.
